# Source: PubChem BioAssay AID280 (DTP/NCI, 2004)
# Toxic doses and inconclusive results are not listed.
# Tested on: nude mice, LOX melanoma ip, survival T/C
# Test: NCI In Vivo Anticancer Drug Screen. Data for tumor model Human Amelanotic Melanoma (LOX) (intraperitoneal) in NU/NU BALB/C (nude) mice
# Conditions: endpoint: median survival time, higher = longer survival
# Experimental: The antitumor activity of compounds was measured in mice bearing transplantable tumors. Survival or tumor size were measured and the results are expressed as the measurement made in the treated group (T) divided by the measurement made in the vehicle treated control group (C). The tumor model used in this assay is Human Amelanotic Melanoma (LOX) (intraperitoneal) in NU/NU BALB/C (nude) mice
compound,measurement,setting,value
Cc1c(N)nc([C@H](CC(N)=O)NC[C@H](N)C(N)=O)nc1C(=O)N[C@H](C(=O)N[C@H](C)[C@@H](O)[C@H](C)C(=O)N[C@H](C(=O)NCCc1nc(-c2nc(C(=O)NCCC[S+](C)C)cs2)cs1)[C@@H](C)O)C(OC1OC(CO)C(O)C(O)C1OC1OC(CO)C(O)C(OC(N)=O)C1O)c1cnc[nH]1 (stereo partly drawn),T/C,"dose: 2.0 mg/kg/injection, schedule: Q01DX015 (ip), vehicle: saline",165 % of control
same,T/C,"dose: 4.0 mg/kg/injection, schedule: Q01DX005 (ip), vehicle: saline",155 % of control
same,T/C,"dose: 4.0 mg/kg/injection, schedule: Q01DX015 (ip), vehicle: saline",159 % of control
same,T/C,"dose: 8.0 mg/kg/injection, schedule: Q01DX005 (ip), vehicle: saline",175 % of control
same,T/C,"dose: 8.0 mg/kg/injection, schedule: Q01DX015 (ip), vehicle: saline",176 % of control
same,T/C,"dose: 8.0 mg/kg/injection, schedule: Q04DX003 (ip), vehicle: saline",160 % of control
same,T/C,"dose: 16.0 mg/kg/injection, schedule: Q01DX015 (ip), vehicle: saline",87 % of control
same,T/C,"dose: 24.0 mg/kg/injection, schedule: Q04DX003 (ip), vehicle: saline",110 % of control
same,T/C,"dose: 32.0 mg/kg/injection, schedule: Q01DX001 (ip), vehicle: saline",150 % of control
same,T/C,"dose: 32.0 mg/kg/injection, schedule: Q01DX005 (ip), vehicle: saline",175 % of control
same,T/C,"dose: 32.0 mg/kg/injection, schedule: Q04DX003 (ip), vehicle: saline",176 % of control
same,T/C,"dose: 36.0 mg/kg/injection, schedule: Q04DX003 (ip), vehicle: saline",105 % of control
same,T/C,"dose: 64.0 mg/kg/injection, schedule: Q01DX001 (ip), vehicle: saline",151 % of control
same,T/C,"dose: 128.0 mg/kg/injection, schedule: Q01DX001 (ip), vehicle: saline",150 % of control
O=NN(CCCl)C(=O)NCCCl,T/C,"dose: 1.88 mg/kg/injection, schedule: Q01DX005 (ip), vehicle: saline + alcohol",122 % of control
same,T/C,"dose: 2.5 mg/kg/injection, schedule: Q01DX015 (ip), vehicle: saline + alcohol",185 % of control
same,T/C,"dose: 3.75 mg/kg/injection, schedule: Q01DX005 (ip), vehicle: saline + alcohol",163 % of control
same,T/C,"dose: 5.0 mg/kg/injection, schedule: Q01DX001 (ip), vehicle: saline + alcohol",117 % of control
same,T/C,"dose: 5.0 mg/kg/injection, schedule: Q01DX015 (ip), vehicle: saline + alcohol",193 % of control
same,T/C,"dose: 7.5 mg/kg/injection, schedule: Q01DX005 (ip), vehicle: saline + alcohol",218 % of control
same,T/C,"dose: 10.0 mg/kg/injection, schedule: Q04DX003 (ip), vehicle: saline + alcohol",185 % of control
same,T/C,"dose: 12.0 mg/kg/injection, schedule: Q04DX003 (ip), vehicle: saline + alcohol",118 % of control
same,T/C,"dose: 12.0 mg/kg/injection, schedule: Q04DX003 (iv), vehicle: saline + alcohol",220 % of control
same,T/C,"dose: 15.0 mg/kg/injection, schedule: Q01DX005 (ip), vehicle: saline + alcohol",191 % of control
same,T/C,"dose: 18.0 mg/kg/injection, schedule: Q04DX003 (ip), vehicle: saline + alcohol",116 % of control
same,T/C,"dose: 18.0 mg/kg/injection, schedule: Q04DX003 (iv), vehicle: saline + alcohol",331 % of control
same,T/C,"dose: 20.0 mg/kg/injection, schedule: Q01DX001 (ip), vehicle: saline + alcohol",177 % of control
same,T/C,"dose: 20.0 mg/kg/injection, schedule: Q04DX003 (ip), vehicle: saline + alcohol",175 % of control
same,T/C,"dose: 27.0 mg/kg/injection, schedule: Q04DX003 (ip), vehicle: saline + alcohol",116 % of control
same,T/C,"dose: 27.0 mg/kg/injection, schedule: Q04DX003 (iv), vehicle: saline + alcohol",331 % of control
same,T/C,"dose: 40.0 mg/kg/injection, schedule: Q01DX001 (ip), vehicle: saline + alcohol",171 % of control
same,T/C,"dose: 40.0 mg/kg/injection, schedule: Q04DX003 (ip), vehicle: saline + alcohol",218 % of control
same,T/C,"dose: 80.0 mg/kg/injection, schedule: Q01DX001 (ip), vehicle: saline + alcohol",196 % of control
O=C1C=C(N2CC2)C(=O)C(N2CC2)=C1N1CC1,T/C,"dose: 25.0 micrograms/kg/injection, schedule: Q04DX003 (ip), vehicle: saline",177 % of control
same,T/C,"dose: 43.0 micrograms/kg/injection, schedule: Q04DX003 (ip), vehicle: saline",116 % of control
same,T/C,"dose: 100.0 micrograms/kg/injection, schedule: Q04DX003 (ip), vehicle: saline",220 % of control
same,T/C,"dose: 120.0 micrograms/kg/injection, schedule: Q04DX003 (ip), vehicle: saline",158 % of control
same,T/C,"dose: 200.0 micrograms/kg/injection, schedule: Q04DX003 (ip), vehicle: saline",277 % of control
same,T/C,"dose: 333.0 micrograms/kg/injection, schedule: Q04DX003 (ip), vehicle: saline",187 % of control
O=c1[nH]cnc2c1cnn2CN1CCOCC1,T/C,"dose: 25.0 mg/kg/injection, schedule: Q04DX003 (ip), vehicle: Klucel (hydroxypropylcellulose) (HPC)",93 % of control
same,T/C,"dose: 50.0 mg/kg/injection, schedule: Q04DX003 (ip), vehicle: Klucel (hydroxypropylcellulose) (HPC)",123 % of control
same,T/C,"dose: 100.0 mg/kg/injection, schedule: Q04DX003 (ip), vehicle: Klucel (hydroxypropylcellulose) (HPC)",109 % of control
O=C1c2ccccc2C(Cl)(c2ccc(Cl)cc2)c2ccc(Cl)cc21 (stereo not drawn),T/C,"dose: 75.0 mg/kg/injection, schedule: Q04DX003 (ip), vehicle: saline with Tween-80",93 % of control
same,T/C,"dose: 150.0 mg/kg/injection, schedule: Q04DX003 (ip), vehicle: saline with Tween-80",116 % of control
same,T/C,"dose: 300.0 mg/kg/injection, schedule: Q04DX003 (ip), vehicle: saline with Tween-80",92 % of control
same,T/C,"dose: 600.0 mg/kg/injection, schedule: Q04DX003 (ip), vehicle: saline with Tween-80",87 % of control
same,T/C,"dose: 1200.0 mg/kg/injection, schedule: Q04DX003 (ip), vehicle: saline with Tween-80",93 % of control
NCCCC(N)(C(=O)O)C(F)F (stereo not drawn),T/C,"dose: 75.0 mg/kg/injection, schedule: Q04DX003 (ip), vehicle: distilled water + alcohol",112 % of control
same,T/C,"dose: 150.0 mg/kg/injection, schedule: Q04DX003 (ip), vehicle: distilled water + alcohol",111 % of control
same,T/C,"dose: 300.0 mg/kg/injection, schedule: Q04DX003 (ip), vehicle: distilled water + alcohol",101 % of control
same,T/C,"dose: 600.0 mg/kg/injection, schedule: Q04DX003 (ip), vehicle: distilled water + alcohol",97 % of control
same,T/C,"dose: 1200.0 mg/kg/injection, schedule: Q04DX003 (ip), vehicle: distilled water + alcohol",106 % of control
CC(C)(C)c1ccc(C(=O)N2CCOC23CCCCC3)cc1,T/C,"dose: 75.0 mg/kg/injection, schedule: Q04DX003 (ip), vehicle: Klucel (hydroxypropylcellulose) (HPC)",98 % of control
same,T/C,"dose: 150.0 mg/kg/injection, schedule: Q04DX003 (ip), vehicle: Klucel (hydroxypropylcellulose) (HPC)",95 % of control
same,T/C,"dose: 300.0 mg/kg/injection, schedule: Q04DX003 (ip), vehicle: Klucel (hydroxypropylcellulose) (HPC)",92 % of control
same,T/C,"dose: 600.0 mg/kg/injection, schedule: Q04DX003 (ip), vehicle: Klucel (hydroxypropylcellulose) (HPC)",107 % of control
same,T/C,"dose: 1200.0 mg/kg/injection, schedule: Q04DX003 (ip), vehicle: Klucel (hydroxypropylcellulose) (HPC)",107 % of control
Oc1ccc(/C=N/Nc2nnc(N/N=C/c3ccc(O)cc3O)c3ccccc23)c(O)c1,T/C,"dose: 12.5 mg/kg/injection, schedule: Q04DX003 (ip), vehicle: suspension in saline",120 % of control
same,T/C,"dose: 25.0 mg/kg/injection, schedule: Q04DX003 (ip), vehicle: suspension in saline",119 % of control
COC1=C(OC)C(=O)C(N(C)C)=C(CO)C1=O,T/C,"dose: 25.0 mg/kg/injection, schedule: Q04DX003 (ip), vehicle: saline",116 % of control
same,T/C,"dose: 50.0 mg/kg/injection, schedule: Q04DX003 (ip), vehicle: saline",103 % of control
same,T/C,"dose: 100.0 mg/kg/injection, schedule: Q04DX003 (ip), vehicle: saline",104 % of control
same,T/C,"dose: 200.0 mg/kg/injection, schedule: Q04DX003 (ip), vehicle: saline",117 % of control
O=C(CN1CCOCC1)Nc1nc(-c2ccc(Cl)cc2)cs1,T/C,"dose: 75.0 mg/kg/injection, schedule: Q04DX003 (ip), vehicle: DMSO",119 % of control
same,T/C,"dose: 150.0 mg/kg/injection, schedule: Q04DX003 (ip), vehicle: DMSO",112 % of control
same,T/C,"dose: 300.0 mg/kg/injection, schedule: Q04DX003 (ip), vehicle: DMSO",88 % of control
same,T/C,"dose: 600.0 mg/kg/injection, schedule: Q04DX003 (ip), vehicle: DMSO",95 % of control
same,T/C,"dose: 1200.0 mg/kg/injection, schedule: Q04DX003 (ip), vehicle: DMSO",92 % of control
COC1=C(C)C(=O)C2=C(C1=O)C(CO)N1C(C#N)C3CC4C(C1C2N1CCOC41)N3C (stereo not drawn),T/C,"dose: 0.63 mg/kg/injection, schedule: Q04DX003 (ip), vehicle: acid diluted with saline",109 % of control
same,T/C,"dose: 0.63 mg/kg/injection, schedule: Q04DX003 (ip), vehicle: saline + alcohol",122 % of control
same,T/C,"dose: 1.25 mg/kg/injection, schedule: Q04DX003 (ip), vehicle: acid diluted with saline",123 % of control
same,T/C,"dose: 2.5 mg/kg/injection, schedule: Q04DX003 (ip), vehicle: acid diluted with saline",115 % of control
same,T/C,"dose: 2.5 mg/kg/injection, schedule: Q04DX003 (ip), vehicle: saline + alcohol",168 % of control
